This is an account of results in patent publication US11254686B1 (Corvus Pharmaceuticals, Inc., priority 2017, dated 2022).

Common to all, as to format: biochemical
One test deals with adenosine A3 receptor (Homo sapiens (Human), UniProt P0DMS8). Briefly: Adenosine receptor activity assay (Table 1), A3 cAMP. The method, then: (§1) Table 1. Compounds (e.g., Adenosine Receptor modulators) and activity assay results. The legend is as follows: A=<10 nM; B=10-50 nM; C=50-100 nM; D=100-500; and E=>500 nM. The ratio corresponds to the A2A activity to the A2B activity; or A2A/A2B.
Chain of adenosine A3 receptor (P0DMS8 whole entry): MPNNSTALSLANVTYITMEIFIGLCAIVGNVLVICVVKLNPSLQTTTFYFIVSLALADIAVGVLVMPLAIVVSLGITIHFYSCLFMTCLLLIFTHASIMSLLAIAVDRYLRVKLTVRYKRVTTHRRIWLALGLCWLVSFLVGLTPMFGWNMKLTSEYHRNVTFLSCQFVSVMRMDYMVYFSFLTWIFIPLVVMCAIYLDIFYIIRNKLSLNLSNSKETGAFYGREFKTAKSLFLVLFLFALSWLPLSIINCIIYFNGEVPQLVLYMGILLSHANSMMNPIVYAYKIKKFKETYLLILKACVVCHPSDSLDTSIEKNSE

In a further test the target is adenosine A2B receptor (Homo sapiens (Human), UniProt P29275). Briefly: Adenosine receptor activity assay (Table 1), A2B activity. Conditions: for IC50: read-out: Ave A2B cAMP IC50.
Chain of adenosine A2B receptor (P29275 whole entry): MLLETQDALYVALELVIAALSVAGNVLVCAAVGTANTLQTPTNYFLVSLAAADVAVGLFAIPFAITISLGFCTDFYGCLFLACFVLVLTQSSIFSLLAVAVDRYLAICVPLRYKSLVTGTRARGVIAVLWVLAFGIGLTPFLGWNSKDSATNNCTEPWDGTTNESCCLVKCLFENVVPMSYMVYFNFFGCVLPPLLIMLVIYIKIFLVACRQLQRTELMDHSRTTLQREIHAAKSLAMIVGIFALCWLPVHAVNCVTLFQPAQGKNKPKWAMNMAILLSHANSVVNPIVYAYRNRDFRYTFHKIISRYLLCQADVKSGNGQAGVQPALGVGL
Another test deals with adenosine A2A receptor (Homo sapiens (Human), UniProt P29274). Briefly: Adenosine receptor activity assay (Table 1), A2A activity. Conditions: read-out: Ave A2A cAMP IC50.
Chain of adenosine A2A receptor (P29274 whole entry): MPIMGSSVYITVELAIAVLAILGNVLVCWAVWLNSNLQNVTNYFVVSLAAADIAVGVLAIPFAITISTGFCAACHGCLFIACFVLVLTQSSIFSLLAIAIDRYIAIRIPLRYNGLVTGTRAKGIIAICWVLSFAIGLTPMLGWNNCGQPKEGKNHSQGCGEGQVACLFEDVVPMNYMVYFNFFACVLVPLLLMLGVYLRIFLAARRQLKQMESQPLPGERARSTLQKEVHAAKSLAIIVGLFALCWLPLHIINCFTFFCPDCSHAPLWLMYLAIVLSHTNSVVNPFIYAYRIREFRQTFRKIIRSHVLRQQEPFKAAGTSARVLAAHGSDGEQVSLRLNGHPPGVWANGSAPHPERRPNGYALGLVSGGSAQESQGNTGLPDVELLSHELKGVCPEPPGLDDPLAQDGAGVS
The target in another test is adenosine A1 receptor (Homo sapiens (Human), UniProt P30542). Briefly: Adenosine receptor activity assay (Table 1), A1 cAMP. The protocol: as §1
Chain of adenosine A1 receptor (P30542 whole entry): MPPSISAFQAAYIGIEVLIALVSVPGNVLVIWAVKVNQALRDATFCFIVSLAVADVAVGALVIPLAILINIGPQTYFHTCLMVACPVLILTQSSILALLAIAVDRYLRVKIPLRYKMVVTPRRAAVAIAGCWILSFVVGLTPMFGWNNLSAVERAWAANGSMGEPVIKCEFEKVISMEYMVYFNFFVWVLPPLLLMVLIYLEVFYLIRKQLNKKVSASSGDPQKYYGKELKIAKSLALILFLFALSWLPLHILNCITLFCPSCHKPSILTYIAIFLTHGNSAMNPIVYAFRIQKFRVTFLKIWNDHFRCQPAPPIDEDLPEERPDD
Setting [1] is: A2A activity to the A2B activity, A2A/A2B.

As usually defined, the IC50 is the concentration needed to halve the response being measured. Consider `C[C@H](Nc1nc(C(=O)N[C@@H]2CC[C@H](O)C2)c2sccc2n1)c1cncc(F)c1` [Example Z402, 2-(((S)-1-(5-Fluoropyridin-3-yl)ethyl)amino)-N-((1R,3S)-3-hydroxycyclopentyl)thieno[3,2-d]pyrimidine-4-carboxamide], for which the half-maximal inhibitory concentration (IC50) at adenosine A3 receptor is 50 to 100 nM; on adenosine A2B receptor, less than 10 nM; at adenosine A2A receptor, 50 to 100 nM; at adenosine A1 receptor, 100 to 500 nM. Also, the Ratio on adenosine A2B receptor (setting [1]) stood at 38.37.
As to `COC[C@@H](Nc1nc(C(=O)NCCc2ccc(O)cc2)c2sccc2n1)c1cccnc1` [Example Z403, (S)—N-(4-Hydroxyphenethyl)-2-((2-methoxy-1-(pyridin-3-yl)ethyl)amino)thieno[3,2-d]pyrimidine-4-carboxamide], the IC50 against adenosine A3 receptor is more than 500 nM; at adenosine A2B receptor it was 10 to 50 nM; on adenosine A2A receptor, more than 500 nM; against adenosine A1 receptor, more than 500 nM. Besides, the Ratio on adenosine A2B receptor (setting [1]) is recorded as 42.24.
As for `C[C@H](Nc1nc(C(=O)N2CC(CNC(=O)OC(C)(C)C)C2)c2sccc2n1)c1cncc(F)c1` [Example Z404, tert-Butyl (S)-((1-(2-((1-(5-fluoropyridin-3-yl)ethyl)amino)thieno[3,2-d]pyrimidine-4-carbonyl)azetidin-3-yl)methyl)carbamate], the IC50 at adenosine A3 receptor was more than 500 nM; on adenosine A2B receptor it was less than 10 nM; on adenosine A2A receptor, 10 to 50 nM; against adenosine A1 receptor it was more than 500 nM. For the same compound, at adenosine A2B receptor (setting [1]), the Ratio worked out at 5.80.
Consider `C[C@H](Nc1nc(C(=O)NCCc2ccc(O)cc2)c2sccc2n1)c1ccnc(F)c1` [Example Z405, (S)-2-((1-(2-Fluoropyridin-4-yl)ethyl)amino)-N-(4-hydroxyphenethyl)thieno[3,2-d]pyrimidine-4-carboxamide], for which the IC50 on adenosine A3 receptor was more than 500 nM; at adenosine A2B receptor, less than 10 nM; on adenosine A2A receptor, 100 to 500 nM; at adenosine A1 receptor, more than 500 nM. Besides, the Ratio on adenosine A2B receptor (setting [1]) was determined as 28.50.
In the case of `C[C@H](Nc1nc(C(=O)NCCc2cccc(O)c2)c2sccc2n1)c1cncc(F)c1` [Example Z409, (S)-2-((1-(5-Fluoropyridin-3-yl)ethyl)amino)-N-(3-hydroxyphenethyl)thieno[3,2-d]pyrimidine-4-carboxamide], the IC50 at adenosine A3 receptor was 50 to 100 nM; at adenosine A2B receptor, less than 10 nM; at adenosine A2A receptor, 10 to 50 nM; at adenosine A1 receptor, 50 to 100 nM. In addition, the Ratio at adenosine A2B receptor (setting [1]) worked out at 5.96.
Turning to `C[C@H](Nc1nc(C(=O)NCCc2ccc(O)cc2)c2sccc2n1)c1ccccn1` [Example Z410, (S)—N-(4-Hydroxyphenethyl)-2-((1-(pyridin-2-yl)ethyl)amino)thieno[3,2-d]pyrimidine-4-carboxamide], the IC50 is more than 500 nM against adenosine A3 receptor, less than 10 nM at adenosine A2B receptor, 100 to 500 nM on adenosine A2A receptor and more than 500 nM at adenosine A1 receptor. Further, the Ratio at adenosine A2B receptor (setting [1]) amounted to 69.41.
Consider `COc1cccc(CCNC(=O)c2nc(N[C@@H](C)c3cncc(F)c3)nc3ccsc23)n1` [Example Z411, (S)-2-((1-(5-Fluoropyridin-3-yl)ethyl)amino)-N-(2-(6-methoxypyridin-2-yl)ethyl)thieno[3,2-d]pyrimidine-4-carboxamide], for which the concentration for half-maximal inhibition (IC50) was more than 500 nM at adenosine A3 receptor, less than 10 nM on adenosine A2B receptor, 100 to 500 nM on adenosine A2A receptor and more than 500 nM on adenosine A1 receptor. The Ratio at adenosine A2B receptor (setting [1]) is listed as 19.23.
Take `Cc1cc2nc(N[C@@H](C)c3cncc(F)c3)nc(C(=O)N3CC[C@@H](N)C3)c2s1` [Example Z413, ((R)-3-Aminopyrrolidin-1-yl)(2-(((S)-1-(5-fluoropyridin-3-yl)ethyl)amino)-6-methylthieno[3,2-d]pyrimidin-4-yl)methanone]: the IC50 was more than 500 nM against adenosine A3 receptor, 10 to 50 nM at adenosine A2B receptor, more than 500 nM on adenosine A2A receptor and more than 500 nM on adenosine A1 receptor. Further, the Ratio at adenosine A2B receptor (setting [1]) is 126.84.
With `Cc1csc2c(C(=O)N3CCCC3)nc(N[C@@H](C)c3cncc(F)c3)nc12` [Example Z414, (S)-(2-((1-(5-Fluoropyridin-3-yl)ethyl)amino)-7-methylthieno[3,2-d]pyrimidin-4-yl)(pyrrolidin-1-yl)methanone], the IC50 against adenosine A3 receptor is 50 to 100 nM; on adenosine A2B receptor it was less than 10 nM; at adenosine A2A receptor, 10 to 50 nM; at adenosine A1 receptor it was 50 to 100 nM. The Ratio on adenosine A2B receptor (setting [1]) worked out at 19.11.
As for `CC(=O)Nc1ccc(CCNC(=O)c2nc(N[C@@H](C)c3cccnc3)nc3cc(C)sc23)cc1` [Example Z497, (S)—N-(4-Acetamidophenethyl)-6-methyl-2-((1-(pyridin-3-yl)ethyl)amino)thieno[3,2-d]pyrimidine-4-carboxamide], the IC50 at adenosine A3 receptor was in the range of 50 to 100 nM; at adenosine A2B receptor, 10 to 50 nM.
For the compound `COC[C@@H]1CCN1C(=O)c1nc(N[C@@H](C)c2cncc(F)c2)nc2ccsc12` [Example Z567, (2-(((S)-1-(5-Fluoropyridin-3-yl)ethyl)amino)thieno[3,2-d]pyrimidin-4-yl)((S)-2-(methoxymethyl)azetidin-1-yl)methanone], the Ratio on adenosine A2B receptor (setting [1]) is reported as 8.82. Besides, the IC50 is 100 to 500 nM on adenosine A2B receptor and more than 500 nM at adenosine A2A receptor.
For `COC[C@H]1CCN1C(=O)c1nc(N[C@@H](C)c2cncc(F)c2)nc2ccsc12` [Example Z568, (2-(((S)-1-(5-Fluoropyridin-3-yl)ethyl)amino)thieno[3,2-d]pyrimidin-4-yl)((R)-2-(methoxymethyl)azetidin-1-yl)methanone], in that order: 12.84, 50 to 100 nM and more than 500 nM.
In the same order, the values of `COC[C@@H]1CCN1C(=O)c1nc(N[C@@H](C)c2cncc(F)c2)nc2cc(C)sc12` [Example Z569, (2-(((S)-1-(5-Fluoropyridin-3-yl)ethyl)amino)-6-methylthieno[3,2-d]pyrimidin-4-yl)((S)-2-(methoxymethyl)azetidin-1-yl)methanone] are 40.75, 100 to 500 nM and more than 500 nM.
For `COC[C@H]1CCN1C(=O)c1nc(N[C@@H](C)c2cncc(F)c2)nc2cc(C)sc12` [Example Z570, (2-(((S)-1-(5-Fluoropyridin-3-yl)ethyl)amino)-6-methylthieno[3,2-d]pyrimidin-4-yl)((R)-2-(methoxymethyl)azetidin-1-yl)methanone], in that order: 84.36, 10 to 50 nM and more than 500 nM.
Turning to `C[C@H](Nc1nc(C(=O)N2CC(C(=O)OC(C)(C)C)C2)c2sccc2n1)c1cncc(F)c1` [Example Z572, tert-Butyl (S)-1-(2-((1-(5-fluoropyridin-3-yl)ethyl)amino)thieno[3,2-d]pyrimidine-4-carbonyl)azetidine-3-carboxylate], the Ratio at adenosine A2B receptor (setting [1]) is recorded as 2.90. The 50% inhibitory concentration (IC50) was 10 to 50 nM at adenosine A2B receptor and 100 to 500 nM at adenosine A2A receptor.
For `CCNC1CN(C(=O)c2nc(N[C@@H](C)c3cncc(F)c3)nc3cc(C)sc23)C1` [Example Z574, (S)-(3-(Ethylamino)azetidin-1-yl)(2-((1-(5-fluoropyridin-3-yl)ethyl)amino)-6-methylthieno[3,2-d]pyrimidin-4-yl)methanone], in that order: 58.55, 10 to 50 nM and more than 500 nM.
For `C[C@H](Nc1nc(C(=O)N2CCN(C(=O)OC(C)(C)C)C2)c2sccc2n1)c1cncc(F)c1` [Example Z584, tert-Butyl (S)-3-(2-((1-(5-fluoropyridin-3-yl)ethyl)amino)thieno[3,2-d]pyrimidine-4-carbonyl)imidazolidine-1-carboxylate], in that order: 2.34, 100 to 500 nM and more than 500 nM.
In the case of `CC(C)NC(=O)N1CCN(C(=O)c2nc(N[C@@H](C)c3cncc(F)c3)nc3ccsc23)C1` [Example Z587, (S)-3-(2-((1-(5-Fluoropyridin-3-yl)ethyl)amino)thieno[3,2-d]pyrimidine-4-carbonyl)-N-isopropylimidazolidine-1-carboxamide], the Ratio on adenosine A2B receptor (setting [1]) came out at 1.63. Besides, the IC50 on adenosine A2B receptor was 50 to 100 nM; on adenosine A2A receptor, 100 to 500 nM.
For `COCCC(=O)N1CCN(C(=O)c2nc(N[C@@H](C)c3cncc(F)c3)nc3ccsc23)C1` [Example Z589, (S)-1-(3-(2-((1-(5-Fluoropyridin-3-yl)ethyl)amino)thieno[3,2-d]pyrimidine-4-carbonyl)imidazolidin-1-yl)-3-methoxypropan-1-one], in that order: 17.96, 10 to 50 nM and more than 500 nM.
As to `C[C@H](Nc1nc(C(=O)N2CCN(C(=O)N(C)C)C2)c2sccc2n1)c1cncc(F)c1` [Example Z590, (S)-3-(2-((1-(5-Fluoropyridin-3-yl)ethyl)amino)thieno[3,2-d]pyrimidine-4-carbonyl)-N,N-dimethylimidazolidine-1-carboxamide], on adenosine A2B receptor (setting [1]), the Ratio came out at 11.22. Also, the values for the IC50 at adenosine A2B receptor and on adenosine A2A receptor were 10 to 50 nM and 100 to 500 nM, respectively.
“(6-Amino-2-(((S)-1-(pyridin-2-yl)ethyl)amino)thieno[3,2-d]pyrimidin-4-yl)((R)-3-fluoropyrrolidin-1-yl)methanone [Example Z174]”: at adenosine A2B receptor (A2A activity to A2B activity (A2A/A2B)), the Ratio was 15.05. In addition, the IC50 was 10 to 50 nM at adenosine A2B receptor and 100 to 500 nM on adenosine A2A receptor.
Regarding “Azetidin-1-yl(2-(((6-methoxypyridin-3-yl)methyl)amino)thieno[3,2-d]pyrimidin-4-yl)methanone [Example Z433]”, at adenosine A2B receptor (setting [1]), the Ratio was found to be 0.22. Also, the IC50 at adenosine A2B receptor was more than 500 nM; at adenosine A2A receptor it was 100 to 500 nM.
